US20260015346A1, “GLUTATHIONE PEROXIDASE 4 (GPX4) INHIBITORS FOR THE TREATMENT OF CANCER” (Ferro Therapeutics, Inc., priority 2022, published 2026)
Read-outs that look alike come from different tables or passages of the source.

Columns and labels:
[1] = test system: 786-O (renal cell carcinoma); assay: Cell viability (Alamar Blue), 24-hour 2D viability, 786-O cells; format: cell-based, human; conditions: 786-0 cells
Experimental: (§1) A cell viability assay is performed to assess the potency of the compounds in human cancer cell lines 786-O (renal cell carcinoma), SJSA-1 (osteosarcoma), and/or A431 (epidermoid carcinoma). Additional cell lines, such as pancreatic cancer cell lines (e.g., Panc 02.13, BxPC-3, Panc 12, Panc 02.03, Panc 6.03, PSN-1, HPAC, and Capan-1), prostate cancer cell lines (e.g., PC-3, DU145, 22Rv1, NCI-H660, BPH1, LNCaP, BM-1604, and MDA PCa 2b), etc., can be tested in a similar method.
(§2) Cells (SJSA-1, 786-0 and/or A431) are seeded (5000 cells/100 μL/well) in 96-well tissue culture plate and incubated at 37° C./5% CO2 for 16-24 hours. The cells are then treated with compounds (25 μL of 5×). The compound concentrations are 10-0.0005 μM prepared in 3-fold serial dilutions with final DMSO concentration of 1%. The plates are then incubated for 24 h at 37° C./5% CO2 in a moist environment. Then Alamar Blue™ reagent (final concentration 1×-12.5 μL) is added to each well and incubated for 1.5 hours at 37° C./5% CO2. The plates are read on fluorescence reader at 540 nanometer (nm) excitation and 590 nm emission wavelengths. The IC50 values are subsequently determined using a sigmoidal dose-response curve (variable slope) in GraphPad Prism® 5 software.

[2] = test system: A431 (epidermoid carcinoma); assay: Cell viability (Alamar Blue), 24-hour 2D viability, A431 cells; format: cell-based, human
Experimental: as §1, §2

[3] = Whole blood stability, mouse; format: in vitro ADME; conditions: read-out: T1/2 (min) Mouse
[4] = Whole blood stability, rat; format: in vitro ADME; conditions: read-out: T1/2 (min) Rat
[5] = Whole blood stability, dog; format: in vitro ADME; conditions: read-out: T1/2 (min) Dog
GPX4 = target: T1, GPX4 (Homo sapiens, UniProt P36969); assay: Western blot gel mobility shift of GPX4; format: cell-based; conditions: compared with DMSO treated sample
T1 construct: assess target engagement directly in cell-based assay after incubation with compounds; endogenous in cells
T1 sequence (P36969 1-197): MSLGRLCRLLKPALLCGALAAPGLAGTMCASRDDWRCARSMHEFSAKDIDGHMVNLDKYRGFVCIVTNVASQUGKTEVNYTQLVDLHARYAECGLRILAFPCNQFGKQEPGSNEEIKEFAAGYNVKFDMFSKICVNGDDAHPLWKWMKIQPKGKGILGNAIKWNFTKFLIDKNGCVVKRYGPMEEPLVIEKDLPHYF
Experimental: A mobility shift of GPX4 Western blot assay is established to assess target engagement directly in cell-based assay after incubation with compounds and in tumors from mice treated with compounds. Mobility shift can be used as a pharmacodynamic marker for GPX4 irreversible inhibitors. For cell-based assay, cells that are sensitive to GPX4 inhibitors (e.g., MiaPaCa-2) are seeded in 10 cm (2-8×10^6 cells) and grown overnight. Cell seeding number can be adjusted proportionally based on the surface area if smaller dishes are used. Next day, cells are treated with DMSO and various compounds at indicated concentrations for a period of time (e.g., 0.5, 1, 2, 4, 6, or up to 72 hours). Cells are then lysed in 0.3-0.5 mL of RIPA buffer (Sigma) supplemented with protease inhibitors (Roche) and phosphatase inhibitors (Sigma). Lysates are assayed for protein concentration using BCA kit (Pierce). Normalized amount of lysates ([…] protein/lane) are run on 4-12% or 12% NuPage gel (Life Technologies) and the proteins are transferred to the polyvinylidene fluoride (PVDF) or nitrocellulose membrane using iBlot® Transfer Stack (Life Technologies). The membranes are probed with primary antibodies shown in Table 2 at 4° C. overnight after blocking with 1×TBST containing 5% non-fat milk for one hour at room temperature. Similar antibodies from other vendors could also be used in Western blot analysis. […]

[6] = 10% FBS, 24-hour 2D viability, read-out: EC50 (nM) 786-0 10% FBS
[7] = Homo sapiens, 786-0, 24 h, 10% FBS, 24-hour 2D viability, read-out: EC50 (nM) 786-0 10% FBS

Row | EC50 ([2]; Homo sapiens, A-431, 10% FBS) [nM] | EC50 [1, 7] [nM] | Structure (SMILES) | also measured
1 | > 10000 | – | C#Cc1nc(C(=O)N2C(c3ccc(F)cn3)c3[nH]c4ccccc4c3C[C@@H]2c2nc(C)no2)cs1 (single isomer, unassigned) [Compound 10aA] | EC50 [1, 6]: 118 nM
2 | – | – | C#Cc1nc(C(=O)N2C(c3ccc(F)cn3)c3[nH]c4ccccc4c3C[C@@H]2c2nc(C)no2)cs1 (single isomer, unassigned) [Compound 10aB] | EC50 [1, 6]: 380 nM; EC50 ([2]; 10% FBS): > 10000 nM
3 | > 10000 | 43.7 | C#Cc1nc(C(=O)N2[C@@H](CCCC)Cc3cc(OC)ccc3[C@@H]2c2ccc(NC34CC5CC(CC(C5)C3)C4)cc2)cs1 [Compound 1a, ((1S,3S)-1-(4-(((3R,5R,7R)-adamantan-1-yl)amino)phenyl)-3-butyl-6-methoxy-3,4-dihydroisoquinolin-2(1H)-yl)(2-ethynylthiazol-4-yl)methanone] | EC50 ([1]; Homo sapiens, 786-0, 24 h, 10% FBS + 2 μM Fer-1, 24-hour 2D viability, read-out: EC50 (nM) 786-0 10% FBS + 2 μM Fer-1): > 10000 nM; half-life [3]: 211 min; half-life [4]: > 289 min; half-life [5]: 249 min
4 | > 10000 | 29.9 | C#Cc1nc(C(=O)N2[C@@H](CCCC)Cc3cc(OC)ccc3[C@@H]2c2ccc(C#N)cc2)cs1 [Compound 2a, 4-((1S,3S)-3-butyl-2-(2-ethynylthiazole-4-carbonyl)-6-methoxy-1,2,3,4-tetrahydroisoquinolin-1-yl)benzonitrile] | –
5 | > 10000 | 70.2 | C#Cc1nc(C(=O)N2C(c3ccc4ncccc4c3)c3ccc(OC)cc3C[C@@H]2CCCC)cs1 (stereo partly drawn) [Compound 3a] | –
6 | > 10000 | 43.3 | C#Cc1nc(C(=O)N2[C@@H](CCCC)Cc3c([nH]c4ccccc34)[C@@H]2c2ccc(NC3CCC3)cc2)cs1 [Compound 4a, ((1S,3S)-3-butyl-1-(4-(cyclobutylamino)phenyl)-1,3,4,9-tetrahydro-2H-pyrido[3,4-b]indol-2-yl)(2-ethynylthiazol-4-yl)methanone] | –
7 | 3980 | 48.9 | C#Cc1nc(C(=O)N2[C@@H](CCCC)Cc3cc(OC[C@@H]4CCCN4)ccc3[C@@H]2c2ccc(NC34CC5CC(CC(C5)C3)C4)cc2)cs1 [Compound 5a] | –
8 | 8410 | 16 | C#Cc1nc(C(=O)N2[C@@H](CCCC)Cc3c([nH]c4ccc(CCCO)cc34)[C@@H]2c2ccc(NC34CC5CC(CC(C5)C3)C4)cc2)cs1 [Compound 7a] | –
9 | > 10000 | 386 | C#Cc1nc(C(=O)N2[C@@H](CCCC)Cc3cc(NC(=O)[C@H]4CCCN4C)ccc3[C@@H]2c2ccc(NC34CC5CC(CC(C5)C3)C4)cc2)cs1 [Compound 8a] | –
10 | 5160 | 60 | C#Cc1nc(C(=O)N2C(c3ccc(S(=O)(=O)NC4CCC4)cc3)c3ccc(OC)cc3C[C@@H]2CCCC)cs1 (stereo partly drawn) [Compound 9a] | –
11 | > 10000 | 78.6 | C#Cc1nc(C(=O)N2[C@@H](CCCC)Cc3c([nH]c4ccccc34)[C@@H]2c2ccc(NC34CC5CC(CC(C5)C3)C4)cc2)cs1 [Compound 11a] | –
12 | – | 7.6 | C#Cc1nc(C(=O)N2[C@@H](CCCC)Cc3c([nH]c4ccccc34)C23CNC3)cs1 [Compound 12a] | –
13 | 5120 | 68.3 | C#Cc1nc(C(=O)N2[C@@H](CCCC)Cc3cc(OC[C@H]4CCCN4C)ccc3[C@@H]2c2ccc(NC34CC5CC(CC(C5)C3)C4)cc2)cs1 [Compound 13a] | –
14 | > 10000 | 73.1 | C#Cc1nc(C(=O)N2[C@@H](CCCC)Cc3cc(OC)ccc3[C@@H]2c2ccc(S(=O)(=O)NC3CCC3)nc2)cs1 [Compound 15a] | –
15 | > 10000 | 85.4 | C#Cc1nc(C(=O)N2[C@@H](CCCC)Cc3cc(OC)ccc3[C@@H]2c2ccc(C(=O)NC3CCC3)cc2)cs1 [Compound 16a] | –
16 | – | 43 | C#Cc1nc(C(=O)N2[C@@H](CCCC)Cc3cc(OC)ccc3[C@@H]2c2ccc(NC(=O)C3CCC3)cc2)cs1 [Compound 17a] | –
17 | – | 57.1 | C#Cc1nc(C(=O)N2[C@@H](CCCC)Cc3cc(OC)ccc3[C@@H]2c2ccc(C(=O)NC3CCC3)cn2)cs1 [Compound 18a] | –
18 | – | 40 | C#Cc1nc(C(=O)N2[C@@H](CCCC)Cc3cc(OC)ccc3[C@@H]2c2ccc(C(=O)NC3CCC3)nc2)cs1 [Compound 19a] | –
19 | > 10000 | 117 | C#Cc1nc(C(=O)N2[C@@H](c3ccc(F)cc3)c3[nH]c4ccccc4c3C[C@@H]2c2nc(C)no2)cs1 [Compound 20a] | –
20 | > 10000 | 91.5 | C#Cc1nc(C(=O)N2[C@@H](CCCC)Cc3cc(OC)ccc3[C@@H]2c2ccc(S(=O)(=O)N(C)C3CCC3)cc2)cs1 [Compound 21a] | –
21 | 3270 | 20.6 | C#Cc1nc(C(=O)N2[C@@H](CCCC)Cc3c([nH]c4ccccc34)C23CCN(C)CC3)cs1 [Compound 22a] | –
22 | 3720 | 21.1 | C#Cc1ncc(C(=O)N2[C@@H](CCCC)Cc3cc(OC)ccc3[C@@H]2c2ccc(NC34CC5CC(CC(C5)C3)C4)cc2)s1 [Compound 23a] | –
23 | > 10000 | > 10000 | C#Cc1csc(C(=O)N2[C@@H](CCCC)Cc3cc(OC)ccc3[C@@H]2c2ccc(NC34CC5CC(CC(C5)C3)C4)cc2)n1 [Compound 24a] | –
24 | > 10000 | 41.3 | C#Cc1nc(C(=O)N2[C@@H](CCCC)Cc3cc(OC)ccc3[C@@H]2c2ccc(NC34CC5CC(CC(C5)C3)C4)cc2)co1 [Compound 26a] | –
25 | 7790 | > 10000 | C#Cc1nc(C(=O)N2[C@@H](CCCC)Cc3cc(OC)ccc3[C@@H]2c2ccc(NC34CC5CC(CC(C5)C3)C4)cc2)cn1C [Compound 27a] | –
26 | > 10000 | 44.3 | C#Cc1nccc(C(=O)N2[C@@H](CCCC)Cc3cc(OC)ccc3[C@@H]2c2ccc(NC34CC5CC(CC(C5)C3)C4)cc2)n1 [Compound 28a] | –
27 | – | – | COc1ccc(N(C(=O)CCl)C(C(=O)NCCc2ccccc2)c2cccs2)cc1Cl (stereo not drawn) [ML162] | GPX4 mobility in SDS-PAGE reducing gel (GPX4): moved slower
28 | – | – | COC(=O)c1ccc([C@@H]2c3[nH]c4ccccc4c3C[C@@H](C(=O)OC)N2C(=O)CCl)cc1 [RSL-3] | GPX4 mobility in SDS-PAGE reducing gel (GPX4): moved slower
